Measured values as given in patent publication US20260077000A1, “METABOLIC MODULATION OF INTRATUMORAL CHOLESTEROL WITH ENGINEERED BACTERIA FOR THE TREATMENT OF CANCERS” (Hong Kong Baptist University, priority 2024, published 2026).

Target: recombinant extracellular domain of EGFR (EGFR-ECD) (Homo sapiens, UniProt P00533)
Test: Microscale thermophoresis (MST), EGFR-ECD binding
Protocol: Recombinant human protein was labeled with a Monolith NT Protein Labeling Kit RED-NHS (Nanotemper, Munich, Germany) and diluted to 50 nM with HEPES buffer (10 mM HEPES, 150 mM NaCl, 0.05% Tween). […] Samples were incubated at room temperature for 5 minutes. The mixtures were centrifuged at 16,000×g for 5 minutes and loaded into capillaries. Microscale thermophoresis measurements were performed using a Monolith NT.115 (Nanotemper, Munich, Germany).

Chain of recombinant extracellular domain of EGFR (EGFR-ECD) (P00533 25-645 limits assumed): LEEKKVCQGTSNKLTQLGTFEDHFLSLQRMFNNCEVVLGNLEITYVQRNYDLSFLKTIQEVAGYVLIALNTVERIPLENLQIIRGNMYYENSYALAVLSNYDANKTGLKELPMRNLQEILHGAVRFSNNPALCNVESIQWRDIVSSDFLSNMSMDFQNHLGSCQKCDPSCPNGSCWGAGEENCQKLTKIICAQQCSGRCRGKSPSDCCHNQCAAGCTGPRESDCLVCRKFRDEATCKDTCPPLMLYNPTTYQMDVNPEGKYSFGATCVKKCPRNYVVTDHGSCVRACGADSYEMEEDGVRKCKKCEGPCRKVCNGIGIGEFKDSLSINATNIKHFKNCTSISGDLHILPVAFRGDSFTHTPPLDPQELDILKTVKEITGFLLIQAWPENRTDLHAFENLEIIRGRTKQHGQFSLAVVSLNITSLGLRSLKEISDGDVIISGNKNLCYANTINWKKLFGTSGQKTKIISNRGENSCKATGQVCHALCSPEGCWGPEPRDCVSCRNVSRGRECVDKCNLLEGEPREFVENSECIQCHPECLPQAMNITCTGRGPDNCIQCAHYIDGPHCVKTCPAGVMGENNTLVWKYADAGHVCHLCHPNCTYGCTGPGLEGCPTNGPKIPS

CC(C)CCC[C@@H](C)[C@H]1CC[C@H]2[C@@H]3CCC4=CC(=O)CC[C@]4(C)[C@H]3CC[C@]12C [4-C-3, 4-cholesten-3-one]
Kd: 5.6 µM
